US10538498B2, “1,3,4-oxadiazole sulfonamide derivative compounds as histone deacetylase 6 inhibitor, and the pharmaceutical composition comprising the same” (Chong Kun Dang Pharmaceutical Corp., priority 2015, dated 2020)

Tests used:
human recombinant HDAC6 = target: T1, human recombinant HDAC6 (Homo sapiens, UniProt Q9UBN7); test: HDAC6 enzyme activity inhibition assay (HDAC Fluorimetric Drug Discovery Kit); format: biochemical; details: for HDAC6 selectivity (fold): HDAC1 vs HDAC6; for IC50: same protocol as the HDAC1 enzyme activity test
T1 construct: purchased Calbiochem 382180
T1 sequence (Q9UBN7 1-1215): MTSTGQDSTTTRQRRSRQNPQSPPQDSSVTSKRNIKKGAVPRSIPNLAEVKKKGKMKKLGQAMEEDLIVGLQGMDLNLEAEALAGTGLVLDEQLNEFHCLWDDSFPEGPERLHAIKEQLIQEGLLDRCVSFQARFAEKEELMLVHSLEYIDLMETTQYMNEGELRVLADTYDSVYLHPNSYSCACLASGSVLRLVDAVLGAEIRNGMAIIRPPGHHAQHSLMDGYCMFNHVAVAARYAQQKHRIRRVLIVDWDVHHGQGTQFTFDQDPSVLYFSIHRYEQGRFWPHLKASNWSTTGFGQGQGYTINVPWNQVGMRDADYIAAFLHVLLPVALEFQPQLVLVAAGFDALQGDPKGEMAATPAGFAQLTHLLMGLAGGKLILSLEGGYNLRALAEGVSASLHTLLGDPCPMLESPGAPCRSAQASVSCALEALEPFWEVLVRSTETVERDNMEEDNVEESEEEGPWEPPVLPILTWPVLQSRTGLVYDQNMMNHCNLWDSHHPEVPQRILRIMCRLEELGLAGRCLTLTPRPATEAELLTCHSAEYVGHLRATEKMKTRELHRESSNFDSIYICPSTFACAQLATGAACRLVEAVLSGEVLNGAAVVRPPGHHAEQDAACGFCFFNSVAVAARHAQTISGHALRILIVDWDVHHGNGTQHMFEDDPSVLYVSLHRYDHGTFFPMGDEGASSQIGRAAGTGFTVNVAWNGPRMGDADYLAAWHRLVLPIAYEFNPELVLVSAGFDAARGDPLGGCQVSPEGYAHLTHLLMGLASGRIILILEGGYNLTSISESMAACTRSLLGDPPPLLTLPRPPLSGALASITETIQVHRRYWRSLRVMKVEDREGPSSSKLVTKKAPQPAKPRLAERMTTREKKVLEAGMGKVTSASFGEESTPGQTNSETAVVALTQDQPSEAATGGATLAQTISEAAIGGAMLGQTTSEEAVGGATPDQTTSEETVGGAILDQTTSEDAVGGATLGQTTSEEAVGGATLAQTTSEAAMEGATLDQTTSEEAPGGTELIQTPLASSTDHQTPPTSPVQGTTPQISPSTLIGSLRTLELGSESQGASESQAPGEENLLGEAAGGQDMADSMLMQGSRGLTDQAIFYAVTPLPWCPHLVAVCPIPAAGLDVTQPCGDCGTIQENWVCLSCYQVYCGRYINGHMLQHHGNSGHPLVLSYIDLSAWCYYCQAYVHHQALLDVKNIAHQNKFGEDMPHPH
Summary of the method: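 5-fold compound dilutions + 0.3 μg enzyme + 10 μM Fluor de Lys-SIRT1 substrate, 60 min, 30° C; Developer II 30 min; fluorescence Ex 360/Em 460; IC50 by curve fit.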

human recombinant HDAC1 = target: T2, human recombinant HDAC1 (Homo sapiens, UniProt Q13547); test: HDAC1 enzyme activity inhibition assay (HDAC Fluorimetric Drug Discovery Kit); format: biochemical; details: 0.3 μg enzyme, 10 μM substrate, 30° C., 60 minutes
T2 construct: purchased Enzo Life Science BML-SE456
Description: In order to examine the HDAC6 selectivity of the compounds of formula I of the present invention by HDAC1 and HDAC6 enzymatic activity inhibition assays, an experiment was performed using a conventional substance as a control.
HDAC enzyme activity was measured using a HDAC Fluorimetric Drug Discovery Kit (BML-AK511, 516, Enzo Life Science). For the HDAC1 enzyme activity test, human recombinant HDAC1 (BML-SE456) was used as an enzyme source, and Fluor de Lys®-“SIRT1 (BNL-KI177) was used as a substrate. A 5-fold dilution of the compound was seeded into a 96-well plate, and then 0.3 μg of the enzyme and 10 μM of the substrate were added to each well of the plate and allowed to react at 30° C. for 60 minutes. Then, Fluor de Lys®-Developer II (BML-KI176) was added thereto and allowed to react for 30 minutes, after which the fluorescence value (Ex 360, Em 460) was measured using a multi-plate reader (Flexstation 3, Molecular Device). The HDAC6 enzyme was tested using human recombinant HDAC6 (382180) (Calbiochem) according to the same protocol as the HDAC1 enzyme activity test method. Based on the resulting values, each IC50 value was calculated using GraphPad Prism4.0 program.

T2 sequence (Q13547 whole entry): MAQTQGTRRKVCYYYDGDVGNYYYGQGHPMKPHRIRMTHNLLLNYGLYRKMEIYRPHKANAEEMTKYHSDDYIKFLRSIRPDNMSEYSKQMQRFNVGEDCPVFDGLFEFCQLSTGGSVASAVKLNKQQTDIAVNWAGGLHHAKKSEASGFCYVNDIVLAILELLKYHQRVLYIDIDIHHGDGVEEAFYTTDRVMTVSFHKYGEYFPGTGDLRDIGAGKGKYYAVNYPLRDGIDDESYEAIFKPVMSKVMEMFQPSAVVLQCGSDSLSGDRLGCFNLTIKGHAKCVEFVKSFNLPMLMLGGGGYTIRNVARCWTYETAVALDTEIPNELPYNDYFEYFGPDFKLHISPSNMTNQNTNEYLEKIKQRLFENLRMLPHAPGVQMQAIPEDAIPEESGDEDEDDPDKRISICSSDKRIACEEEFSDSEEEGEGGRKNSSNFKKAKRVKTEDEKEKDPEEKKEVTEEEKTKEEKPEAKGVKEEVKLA

Compound	HDAC6 selectivity (fold) (human recombinant HDAC6)	IC50 (human recombinant HDAC6)	IC50 (human recombinant HDAC1)
CCS(=O)(=O)N(Cc1ccc(-c2nnc(C(F)F)o2)cn1)c1ccc(C)c(F)c1 [Compound 11460, N-((5-(5-(difluoromethyl)-1,3,4-oxadiazol-2-yl)pyridin-2-yl)methyl)-N-(3-fluoro-4-methylphenyl)ethanesulfonamide]	2727 fold	0.01 µM	27.3 µM
CCS(=O)(=O)N(Cc1ccc(-c2nnc(C(F)F)o2)cn1)c1cc(F)cc(F)c1 [Compound 11463, N-((5-(5-(difluoromethyl)-1,3,4-oxadiazol-2-yl)pyridin-2-yl)methyl)-N-(3,5-difluorophenyl)ethanesulfonamide]	2789 fold	0.008 µM	22.3 µM
CC(=O)N1CC(N2CCC(S(=O)(=O)N(Cc3ccc(-c4nnc(C(F)F)o4)cn3)c3ccc(F)c(Cl)c3)CC2)C1 [Compound 11502, 1-(1-acetylazetidin-3-yl)-N-(3-chloro-4-fluorophenyl)-N-((5-(5-(difluoromethyl)-1,3,4-oxadiazol-2-yl)pyridin-2-yl)methyl)piperidine-4-sulfonamide]	5579 fold	0.014 µM	78.1 µM
CCS(=O)(=O)N(Cc1ccc(-c2nnc(C(F)F)o2)cn1)c1ccc(C)c(Cl)c1 [Compound 11505, N-(3-chloro-4-methylphenyl)-N-((5-(5-(difluoromethyl)-1,3,4-oxadiazol-2-yl)pyridin-2-yl)methyl)ethanesulfonamide]	4646 fold	0.013 µM	60.4 µM
CCS(=O)(=O)N(Cc1ccc(-c2nnc(C(F)F)o2)cn1)c1cc(Cl)cc(Cl)c1 [Compound 11506, N-(3,5-dichlorophenyl)-N-((5-(5-(difluoromethyl)-1,3,4-oxadiazol-2-yl)pyridin-2-yl)methyl)ethanesulfonamide]	4977 fold	0.012 µM	59.7 µM
CCS(=O)(=O)N(Cc1ccc(-c2nnc(C(F)F)o2)cn1)c1cc(C)cc(Cl)c1 [Compound 11508, N-(3-chloro-5-methylphenyl)-N-((5-(5-(difluoromethyl)-1,3,4-oxadiazol-2-yl)pyridin-2-yl)methyl)ethanesulfonamide]	2155 fold	0.023 µM	49.6 µM
O=S(=O)(CCN1CCCC1)N(Cc1ccc(-c2nnc(C(F)F)o2)cc1F)c1ccc(F)c(Cl)c1 [Compound 11514, N-(3-chloro-4-fluorophenyl)-N-(4-(5-(difluoromethyl)-1,3,4-oxadiazol-2-yl)-2-fluorobenzyl)-2-(pyrrolidin-1-yl)ethane-1-sulfonamide]	938 fold	0.043 µM	40.3 µM
CS(=O)(=O)N(Cc1cnc(-c2nnc(C(F)F)o2)cn1)c1ccccc1 [Compound 11518, N-((5-(5-(difluoromethyl)-1,3,4-oxadiazol-2-yl)pyrazin-2-yl)methyl)-N-phenylmethanesulfonamide]	586 fold	0.068 µM	39.8 µM

Continued by falling IC50 (human recombinant HDAC6), values first:

HDAC6 selectivity (fold) (human recombinant HDAC6)	IC50 (human recombinant HDAC6)	IC50 (human recombinant HDAC1)	Compound
312 fold	0.149 µM	46.5 µM	CS(=O)(=O)N(Cc1ncc(-c2nnc(C(F)(F)F)o2)cn1)c1ccccc1 [Compound 11565, N-phenyl-N-((5-(5-(trifluoromethyl)-1,3,4-oxadiazol-2-yl)pyrimidin-2-yl)methyl)methanesulfonamide]
4790 fold	0.018 µM	86.2 µM	CCS(=O)(=O)N(Cc1ccc(-c2nnc(C(F)F)o2)cn1)c1ccc(Cl)c(C)c1 [Compound 11504, N-(4-chloro-3-methylphenyl)-N-((5-(5-(difluoromethyl)-1,3,4-oxadiazol-2-yl)pyridin-2-yl)methyl)ethanesulfonamide]
2407 fold	0.018 µM	43.3 µM	CCS(=O)(=O)N(Cc1ccc(-c2nnc(C(F)F)o2)cc1F)c1ccc2cnn(C)c2c1 [Compound 11521, N-(4-(5-(difluoromethyl)-1,3,4-oxadiazol-2-yl)-2-fluorobenzyl)-N-(1-methyl-1H-indazol-6-yl)ethanesulfonamide]
3779 fold	0.015 µM	56.7 µM	O=S(=O)(C1CCN(C2COC2)CC1)N(Cc1ccc(-c2nnc(C(F)F)o2)cn1)c1ccc(F)c(Cl)c1 [Compound 11501, N-(3-chloro-4-fluorophenyl)-N-((5-(5-(difluoromethyl)-1,3,4-oxadiazol-2-yl)pyridin-2-yl)methyl)-1-(oxetan-3-yl)piperidine-4-sulfonamide]
4792 fold	0.015 µM	71.9 µM	CS(=O)(=O)N1CC(N2CCC(S(=O)(=O)N(Cc3ccc(-c4nnc(C(F)F)o4)cn3)c3ccc(F)c(Cl)c3)CC2)C1 [Compound 11503, N-(3-chloro-4-fluorophenyl)-N-((5-(5-(difluoromethyl)-1,3,4-oxadiazol-2-yl)pyridin-2-yl)methyl)-1-(1-(methylsulfonyl)azetidin-3-yl)piperidine-4-sulfonamide]
3672 fold	0.014 µM	51.4 µM	CCS(=O)(=O)N(Cc1ccc(-c2nnc(C(F)F)o2)cn1)c1ccc(Cl)c(Cl)c1 [Compound 11507, N-(3,4-dichlorophenyl)-N-((5-(5-(difluoromethyl)-1,3,4-oxadiazol-2-yl)pyridin-2-yl)methyl)ethanesulfonamide]
2769 fold	0.01 µM	27.7 µM	CCS(=O)(=O)N(Cc1ccc(-c2nnc(C(F)F)o2)cn1)c1ccc(F)c(C)c1 [Compound 11461, N-((5-(5-(difluoromethyl)-1,3,4-oxadiazol-2-yl)pyridin-2-yl)methyl)-N-(4-fluoro-3-methylphenyl)ethanesulfonamide]
3439 fold	0.008 µM	27.5 µM	O=C(CO)N1CC(N2CCC(S(=O)(=O)N(Cc3ccc(-c4nnc(C(F)F)o4)cc3F)c3ccc(F)c(Cl)c3)CC2)C1 [Compound 11452, N-(3-chloro-4-fluorophenyl)-N-(4-(5-(difluoromethyl)-1,3,4-oxadiazol-2-yl)-2-fluorobenzyl)-1-(1-(2-hydroxyacetyl)azetidin-3-yl)piperidine-4-sulfonamide]
2635 fold	0.008 µM	21.1 µM	CCS(=O)(=O)N(Cc1ccc(-c2nnc(C(F)F)o2)cn1)c1ccc(F)c(F)c1 [Compound 11462, N-((5-(5-(difluoromethyl)-1,3,4-oxadiazol-2-yl)pyridin-2-yl)methyl)-N-(3,4-difluorophenyl)ethanesulfonamide]
2727 fold	0.008 µM	21.8 µM	O=S1(=O)CCC(S(=O)(=O)N(Cc2ccc(-c3nnc(C(F)F)o3)cn2)c2ccc(F)c(Cl)c2)CC1 [Compound 11497, N-(3-chloro-4-fluorophenyl)-N-((5-(5-(difluoromethyl)-1,3,4-oxadiazol-2-yl)pyridin-2-yl)methyl)tetrahydro-2H-thiopyran-4-sulfonamide 1,1-dioxide]
